Data reported in EP1383793B1 (priority 2000, dated 2001).
pKd: −log10 of the molar value. Positions of bridges follow the written chain, without caps; N, C: chain ends. Residues, ends and D or L forms follow the SMILES beside them. *: point of attachment. Biotin = O=C1N[C@H]2[C@H](CS[C@H]2CCCCC(=O)*)N1

Columns and labels:
[1] = target: T1, human insulin receptor (HIR) (Homo sapiens, UniProt P06213); experiment: 125I-insulin competition binding assay on solubilised purified receptor; details: read-out: Kd (µM) HIR
T1 construct: made in house
T1 sequence (P06213 28-758 limits assumed): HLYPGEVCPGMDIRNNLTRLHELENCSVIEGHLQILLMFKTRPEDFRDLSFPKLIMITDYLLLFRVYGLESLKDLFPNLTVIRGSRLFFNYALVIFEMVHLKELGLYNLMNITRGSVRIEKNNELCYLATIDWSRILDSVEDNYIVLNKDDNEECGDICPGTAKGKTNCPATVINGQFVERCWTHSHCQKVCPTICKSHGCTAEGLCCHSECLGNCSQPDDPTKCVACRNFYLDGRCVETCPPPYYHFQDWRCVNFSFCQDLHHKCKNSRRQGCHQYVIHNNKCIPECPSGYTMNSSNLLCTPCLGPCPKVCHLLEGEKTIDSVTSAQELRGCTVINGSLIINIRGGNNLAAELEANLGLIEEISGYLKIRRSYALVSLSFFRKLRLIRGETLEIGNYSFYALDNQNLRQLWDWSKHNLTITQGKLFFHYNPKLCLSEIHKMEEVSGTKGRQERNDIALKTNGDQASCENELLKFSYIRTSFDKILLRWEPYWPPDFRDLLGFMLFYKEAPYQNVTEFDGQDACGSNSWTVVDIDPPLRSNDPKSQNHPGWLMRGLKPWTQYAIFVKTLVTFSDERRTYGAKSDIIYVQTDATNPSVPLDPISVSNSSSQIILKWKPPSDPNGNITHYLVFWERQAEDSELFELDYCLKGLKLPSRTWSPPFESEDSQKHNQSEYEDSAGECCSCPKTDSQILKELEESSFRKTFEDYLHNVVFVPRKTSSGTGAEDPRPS
T1 sequence (P06213 763-1382 limits assumed): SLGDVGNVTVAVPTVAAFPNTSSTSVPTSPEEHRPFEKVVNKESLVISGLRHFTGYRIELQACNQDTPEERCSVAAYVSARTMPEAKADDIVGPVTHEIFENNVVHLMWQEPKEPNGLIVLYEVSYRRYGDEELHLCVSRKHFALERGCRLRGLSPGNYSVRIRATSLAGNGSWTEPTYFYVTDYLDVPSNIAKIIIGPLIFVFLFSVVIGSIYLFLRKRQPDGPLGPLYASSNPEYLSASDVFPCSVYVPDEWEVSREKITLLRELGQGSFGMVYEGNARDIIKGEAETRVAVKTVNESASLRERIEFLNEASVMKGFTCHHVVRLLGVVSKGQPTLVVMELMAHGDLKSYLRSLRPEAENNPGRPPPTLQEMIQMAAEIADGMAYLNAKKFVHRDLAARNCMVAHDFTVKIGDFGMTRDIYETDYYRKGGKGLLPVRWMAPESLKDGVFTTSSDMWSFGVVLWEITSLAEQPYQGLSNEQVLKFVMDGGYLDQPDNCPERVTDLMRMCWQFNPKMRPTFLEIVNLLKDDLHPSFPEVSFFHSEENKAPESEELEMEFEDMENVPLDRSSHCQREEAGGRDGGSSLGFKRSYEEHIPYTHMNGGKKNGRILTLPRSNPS

[2] = target: human IGF-1 receptor (HIGF-1R) (Homo sapiens, UniProt P08069); experiment: 125I-IGF-1 competition binding assay on solubilised purified receptor; details: for Ratio: Kd HIGF1R / Kd HIR
Sequence of human IGF-1 receptor (HIGF-1R) (P08069 31-736 limits assumed): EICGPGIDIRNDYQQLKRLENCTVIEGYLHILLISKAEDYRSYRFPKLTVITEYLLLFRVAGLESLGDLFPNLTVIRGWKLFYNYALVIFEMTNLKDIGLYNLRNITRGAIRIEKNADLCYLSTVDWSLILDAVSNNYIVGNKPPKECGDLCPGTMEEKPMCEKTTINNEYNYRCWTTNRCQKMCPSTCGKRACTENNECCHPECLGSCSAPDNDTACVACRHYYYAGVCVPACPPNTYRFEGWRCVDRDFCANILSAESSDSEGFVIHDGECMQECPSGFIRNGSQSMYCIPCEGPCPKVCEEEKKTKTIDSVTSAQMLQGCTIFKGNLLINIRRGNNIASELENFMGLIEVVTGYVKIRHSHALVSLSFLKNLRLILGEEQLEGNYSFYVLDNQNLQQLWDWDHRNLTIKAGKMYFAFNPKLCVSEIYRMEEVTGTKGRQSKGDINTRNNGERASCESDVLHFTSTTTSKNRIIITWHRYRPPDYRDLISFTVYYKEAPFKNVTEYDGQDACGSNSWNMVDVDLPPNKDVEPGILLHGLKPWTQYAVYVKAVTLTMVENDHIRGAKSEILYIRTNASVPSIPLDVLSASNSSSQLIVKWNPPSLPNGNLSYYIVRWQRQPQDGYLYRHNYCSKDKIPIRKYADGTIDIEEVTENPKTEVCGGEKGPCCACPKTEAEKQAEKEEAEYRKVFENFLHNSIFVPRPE
Sequence of human IGF-1 receptor (HIGF-1R) (P08069 741-1367 limits assumed): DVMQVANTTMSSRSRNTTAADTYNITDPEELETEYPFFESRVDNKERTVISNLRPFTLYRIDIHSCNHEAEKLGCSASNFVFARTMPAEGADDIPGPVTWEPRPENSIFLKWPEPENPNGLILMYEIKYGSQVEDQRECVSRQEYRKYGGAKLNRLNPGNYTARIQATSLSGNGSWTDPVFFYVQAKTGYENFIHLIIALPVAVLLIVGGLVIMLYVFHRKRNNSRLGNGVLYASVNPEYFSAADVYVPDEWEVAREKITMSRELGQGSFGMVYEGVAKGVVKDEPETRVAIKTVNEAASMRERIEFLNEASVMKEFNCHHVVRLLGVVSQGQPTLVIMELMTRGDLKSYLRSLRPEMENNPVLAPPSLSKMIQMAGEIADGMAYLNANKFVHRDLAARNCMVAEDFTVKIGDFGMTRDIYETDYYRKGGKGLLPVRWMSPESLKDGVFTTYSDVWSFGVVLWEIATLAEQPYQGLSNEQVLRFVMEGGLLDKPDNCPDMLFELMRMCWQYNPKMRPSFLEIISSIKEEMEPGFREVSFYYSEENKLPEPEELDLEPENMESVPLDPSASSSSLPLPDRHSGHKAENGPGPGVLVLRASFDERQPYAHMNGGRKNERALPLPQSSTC

[3] = target: T2, Insulin receptor (Homo sapiens, UniProt P06213); experiment: BIAcore competition: IR pre-incubated with test substance, injected over immobilised insulin; assay type: binding; details: peptide about 40 µM, IR 450 nM
T2 construct: composed of the extracellular domains of both the α and β chains of the natural receptor; made in house; background b13 names human embryonic kidney 293 cells for the Bass et al. construct
T2 sequence (P06213 28-758 limits assumed): as the sequence (P06213 28-758 limits assumed) above
T2 sequence (P06213 763-956 limits assumed): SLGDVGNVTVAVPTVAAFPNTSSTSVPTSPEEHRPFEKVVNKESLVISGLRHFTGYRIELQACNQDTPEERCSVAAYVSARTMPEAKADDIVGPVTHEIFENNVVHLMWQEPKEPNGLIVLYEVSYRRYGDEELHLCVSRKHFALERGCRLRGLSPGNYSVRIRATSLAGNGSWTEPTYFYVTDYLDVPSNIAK
Description: Flowcell-1 was used for background binding to correct for any non-specific binding. […] The surface was regenerated with 25 mM NaOH. […] Thus, the system was validated for competition studies. […] The amino acid sequences referred to in the tables are identified in Figures 47 and 48, except the 447 and 2A9 sequences, which are shown below. TABLE 9: BIAcore Results-Fusion Proteins Compete for Binding to IR

[4] = system: adipocytes; experiment: 3H-glucose uptake into adipocytes (fat cell assay, FFC); assay type: cell-based, Mouse; design: key to Resp.: -2 (antagonist); +2 (agonist); details: for ED50: Estimated, not calculated values; for Resp.: Subjective ranking, basal and sub maximal insulin, includes series A; for ED50 in the effect assay (FFC): best peptides, agonists
[5] = target: T3, IR (Homo sapiens, UniProt P06213); experiment: Phage ELISA, competition of phage binding by soluble synthetic peptides, IR-coated wells; details: Insulin Receptor
T3 construct: composed of the extracellular domains of both the α and β chains of the natural receptor; made in house; background b13 names human embryonic kidney 293 cells for the Bass et al. construct
T3 sequence (P06213 28-758 limits assumed): as the sequence (P06213 28-758 limits assumed) above
T3 sequence (P06213 763-956 limits assumed): as the sequence (P06213 763-956 limits assumed) above
Description: (§1) Phage ELISA. […] The wells were blocked with 200 µl of MPBS for 1.5 h at RT. Phage were added at 100 µl per well. Peptides were added as noted below and allowed to incubate at RT for 3 h. The plates were washed 3 times with PBST. A solution of 1:3000 diluted HRP:Anti-M13 conjugate at 100 µl per well of was added for 1 h. Following a repeat of the washing, 100 µl of ABTS was added for 15-30 min.
(§2) Peptide Competition. […] Twenty microliters of the stock synthetic-peptide solution was added to Row A. A series of 20 µl into 100 µl dilutions were performed until Row G. Twenty microliters were discarded from Row G to maintain 100 µl per well. Row H was reserved as no peptide wells. […] The volume was maintained by the addition of 18 µl of the phage solution to Row A.
(§3) Phage ELISA. […] The wells were blocked with 200 µl of 2% (w/v) Carnation non-fat dry milk in PBS for 1.5 h at RT. Phage were added at 100 µl per well. Peptides were added as noted below and allowed to incubate at RT for 3 h. The plates were washed 3X with PBST. A solution of 1:3000 diluted HRP:Anti-M13 Conjugate at 100 µl per well of was added for 1 h. Following a repeat of the washing, 100 µl of ABTS was added for 15-30 min. The OD405 was measured using a SpectraMax 340 Microplate Spectrophotometer.
(§4) Peptide Competition. Peptide Competition Curves were produced during the phage ELISA across rows in triplicate. The stock synthetic peptide solution was added to Column 12 so that the total volume totaled 150 µl (additional phage solution was added when necessary). A serial dilution was made by transferring 50 µl from Column 12 into 100 µl in Column 11, 50 µl from Column 11 into 100 µl in Column 10, and continuing the serial dilution until Column 2. Fifty microliters were discarded from Column 2 to maintain 100 µl per well. Column 1 was reserved as no peptide wells.
(§5) A p53-like peptide that binds to MDM2 was used as a negative control.

[6] = Precipitate in diluted peptide stock prior to adding to the fat cell assay; solubility under assay conditions; assay type: physicochemical; details: for Comments (precipitation): diluted stock prior to adding to assay
[7] = target: T3, IR; experiment: Phage ELISA, binding of phage-displayed peptides to IR
Description: Amino acid sequences comprising the motif of Formulas 1 through 10. […] Fifty microliters of this solution was added to an appropriate number of wells in a 96-well microtiter plate (MaxiSorp plates, Nunc) and incubated overnight at 4°C. […] To isolate specific binders, each library was panned against a soluble form of the human IR. This IR is composed of the extracellular domains of both the α and β chains of the natural receptor, as well as the constant domain from immunoglobulin Fc, retaining the β-α-α-β structure described above. Because the IR is expressed in a eukaryotic system, disulfide bond formation and glycosylation patterns should mimic the wild-type receptor. The details of this recombinant protein construct are described in Bass et al. (1996). Phage ELISA. […] The wells were blocked with 200 µl of MPBS for 1.5 h at RT. […] Peptides were added as noted below and allowed to incubate at RT for 3 h. The plates were washed 3 times with PBST. A solution of 1:3000 diluted HRP:Anti-M13 conjugate at 100 µl per well of was added for 1 h. Following a repeat of the washing, 100 µl of ABTS was added for 15-30 min. […] Phage ELISA. […] Peptides were added as noted below and allowed to incubate at RT for 3 h. […] A solution of 1:3000 diluted HRP:Anti-M13 Conjugate at 100 µl per well of was added for 1 h. Following a repeat of the washing, 100 µl of ABTS was added for 15-30 min. The OD405 was measured using a SpectraMax 340 Microplate Spectrophotometer.

[8] = target: T4, IGF-1R (Homo sapiens, UniProt P08069); experiment: Phage ELISA, competition of phage binding by soluble synthetic peptides, IGF-1R-coated wells; details: IGF Receptor
T4 construct: Soluble IGF-1R was obtained from R&D Systems; purchased R&D Systems 391-GR/CF
T4 sequence (P08069 31-736 limits assumed): as the sequence (P08069 31-736 limits assumed) above
T4 sequence (P08069 741-935 limits assumed): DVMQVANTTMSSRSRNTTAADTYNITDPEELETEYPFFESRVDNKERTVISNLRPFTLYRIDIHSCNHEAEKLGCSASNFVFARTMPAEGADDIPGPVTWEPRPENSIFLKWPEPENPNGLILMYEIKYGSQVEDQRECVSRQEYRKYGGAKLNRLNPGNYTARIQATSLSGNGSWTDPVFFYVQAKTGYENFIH
Description: as §1, §2, §3, §4, §5

[9] = target: T5, purified insulin receptor (Homo sapiens, UniProt P06213); experiment: Holoenzyme phosphorylation assay (IR autophosphorylation, Western blot); assay type: biochemical
T5 construct: host or cells: 'Wheat Germ Agglutinin Expression System' (so in the source)
T5 sequence (P06213 28-758 limits assumed): as the sequence (P06213 28-758 limits assumed) above
T5 sequence (P06213 763-1382 limits assumed): as the sequence (P06213 763-1382 limits assumed) above
Description: Alternatively, IR autophosphorylation was determined using a holoenzyme phosphorylation assay. […] The reaction was stopped by adding 50 µl of gel loading buffer containing β-mercaptoethanol (Bio-Rad Laboratories, Inc., Hercules, CA). The samples were run on 4-12% SDS-polyacrylamide gels. Western Blot analysis was performed by transferring the proteins onto nitrocellulose membrane. The membrane was blocked in PBS containing 3% milk overnight. The membrane was incubated with anti-phosphotyrosine 4G10 HRP labeled antibody (Upstate Biotechnology) for 2 h. Protein bands were visualized using SuperSignal West Dura Extended Duration Substrate Chemiluminescence Detection System (Pierce Chemical Co.).

[10] = target: T2, Insulin receptor; experiment: Heterogeneous time-resolved fluorescence assay (TRFA) on insulin receptor; assay type: binding; details: peptide at 30 µM
Description: In this assay, saEu forms a ternary complex with bP and IR (i.e., IR:bP:saEu complex). The TRFD assay format is well established, sensitive, and quantitative (Tompkins et al., 1993). The assay can use a single-chain antibody or a biotinylated peptide.
In these assays, soluble IR is coated on the surface of microtiter wells, blocked by a solution of 0.5% BSA and 2% non-fat milk in PBS, and then incubated with biotinylated peptide or rVab. Unbound bP is then washed away and saEu is added to complex with receptor-bound bP. Upon addition of the acidic enhancement solution, the bound europium is released as free Eu^3+ which rapidly forms a highly fluorescent and stable complex with components of the enhancement solution. The IR:bP bound saEu is then converted into its highly fluorescent state and detected by a detector such as Wallac Victor II (EG&G Wallac, Inc.)
• a. Heterogeneous Time-Resolved Fluorescence Assay. […] The plates were blocked with TBS containing 2% milk and 0.5% BSA for 1 h at RT followed by three TBS washes. […] After TBS wash, europium-labeled streptavidin at 1 µg/ml in assay buffer (100 mM Tris-HCl, pH 7.8; 150 mM NaCl; 0.5% BSA; 0.05% bovine Ig; 0.05% NaN3; 0.01% Tween-20) was added to the plates and incubated for 1 h. To test binding of rVab antibodies to IR, Eu-labeled rVab antibodies in assay buffer were added to the plates and incubated for 2 h to overnight. After incubation with Eu-labeled streptavidin (for peptide test) or europium-labeled rVabs, the plates were washed 5 times with Tris-buffered saline (pH 7.5) containing 0.1 % Tween-20 (TTBS) and tapped dry. Sixty microliters of EG&G Wallac enhancement solution (100 mM acetone-potassium hydrogen pthalate, pH 3.2; […] 2-naphtyltrifluoroacetate; […] tri(n-octyl)-phosphine oxide; 0.1 % Triton X-100) was added into each well, and the plates were placed onto a shaker for 20 min at RT. […] Homogeneous Time-Resolved Fluorescence Assay. […] For library screening, 20 µM of small organic molecules in 2 % DMSO are included in the mixture.

Kd [1] | pKd [2] | % Binding [3] | n (Hill plot) ([5]; 20D3 Phage) | n (Hill plot) ([5]; H2 Phage) | Comments (precipitation) [6] | Ratio [2] | Result (RUs) ([3]; IR alone 128 RU) | binding to IR when expressed as phage [7] | n (Hill plot) ([8]; H2 Phage) | Autophosph. Blot [9] | binding of rVab 12H10 to IR [10] | Comments (soluble under assay conditions) ([6]; under assay conditions, no ppt in microscope, low magnification) | n (Hill plot) ([8]; 20D3 Phage) | Compound | Comments (dose response, effect at basal insulin) [4] | ED50 [4] | Resp. [4] | ED50 in the effect assay (FFC) [4]
4.5 µM | 4.89 | 38% |  |  |  |  |  |  |  |  |  |  |  | CC(C)C[C@H](NC(=O)CNC(=O)[C@H](CC(N)=O)NC(=O)[C@H](Cc1ccc(O)cc1)NC(=O)[C@H](Cc1ccccc1)NC(=O)[C@H](C)NC(=O)[C@H](CCCNC(=N)N)NC(=O)[C@H](CC(=O)O)NC(=O)[C@@H](N)CCCCN)C(=O)N[C@@H](CCCNC(=N)N)C(=O)N[C@@H](CC(=O)O)C(=O)N[C@@H](CC(C)C)C(=O)N[C@H](C(=O)NCC(=O)N[C@@H](C)C(=O)N[C@H](C(=O)N[C@@H](Cc1ccc(O)cc1)C(=O)NCC(=O)N[C@@H](C)C(=O)N[C@@H](Cc1c[nH]c2ccccc12)C(=O)N[C@@H](CC(=O)O)C(=O)N[C@@H](CCCCN)C(=O)N[C@@H](CCCCNC(=O)CCCC[C@@H]1SC[C@@H]2NC(=O)N[C@@H]21)C(N)=O)C(C)C)C(C)C [Clone 20C11] (H-KDRAFYNGLRDLVGAVYGAWDKK(Biotin)-NH2) |  |  |  | 
 |  |  | 1.07 | 0.71 | Insoluble, especially after freeze-thaw | 7.2 | 34.6 RUs | detectable binding | 1.21 |  |  |  |  | CC(C)[C@H](NC(=O)[C@H](C)NC(=O)[C@H](CO)NC(=O)[C@@H](NC(=O)[C@H](Cc1ccccc1)NC(=O)[C@@H](NC(=O)[C@@H](NC(=O)[C@H](CC(=O)O)NC(=O)[C@H](CCCCN)NC(=O)[C@H](Cc1ccc(O)cc1)NC(=O)[C@@H](N)CC(=O)O)C(C)C)[C@@H](C)O)[C@@H](C)O)C(=O)N[C@@H](Cc1ccccc1)C(=O)N[C@@H](Cc1c[nH]cn1)C(=O)N[C@@H](CCC(=O)O)C(=O)N[C@@H](CC(N)=O)C(=O)N[C@@H](Cc1ccccc1)C(=O)N[C@@H](Cc1ccc(O)cc1)C(=O)N[C@@H](CC(=O)O)C(=O)N[C@@H](Cc1c[nH]c2ccccc12)C(=O)N[C@@H](Cc1ccccc1)C(=O)N[C@H](C(=O)N[C@@H](CCCNC(=N)N)C(=O)N[C@@H](CCC(N)=O)C(=O)N[C@H](C(=O)N[C@@H](CO)C(=O)N[C@@H](CCCCN)C(=O)N[C@@H](CCCCNC(=O)CCCC[C@@H]1SC[C@@H]2NC(=O)N[C@@H]21)C(N)=O)C(C)C)C(C)C [Clone H2] | Some response at basal insulin | Approx 20 µM | +2 | 20 to 30 µM
 |  |  |  |  |  | 1.8 |  | do not have detectable binding |  | 0 |  |  |  | CC[C@H](C)[C@@H]1NC(=O)[C@H](CCCNC(=N)N)NC(=O)[C@H](C(C)C)NC(=O)CNC(=O)[C@H](Cc2c[nH]c3ccccc23)NC(=O)[C@H](CO)NC(=O)[C@H](CCC(N)=O)NC(=O)[C@@H](NC(=O)[C@H](CC(C)C)NC(=O)[C@H](CC(=O)O)NC(=O)[C@H](CCCCN)NC(=O)[C@H](Cc2ccc(O)cc2)NC(=O)[C@@H](N)CC(=O)O)CSSC[C@@H](C(=O)N2CCC[C@H]2C(=O)N[C@@H](CCCCN)C(=O)N[C@@H](CCCCNC(=O)CCCC[C@@H]2SC[C@@H]3NC(=O)N[C@@H]32)C(N)=O)NC(=O)[C@H](CC(C)C)NC(=O)CNC(=O)[C@H](C)NC(=O)[C@H](CC(C)C)NC(=O)[C@H](Cc2c[nH]c3ccccc23)NC(=O)CNC1=O [JBA5] (H-DYKDLCQSWGVRIGWLAGLCPKK(Biotin)-NH2; disulfide 6-20 (inferred); N-terminus assumed) | Slight effect at basal insulin | > 20 µM | +2 | 
 |  |  | 1.03 | 0.62 | Precipitates | 8.6 |  |  | 1.02 |  | 40-50 % of control | ≥ 20 µM | 0.81 | FHENFYDWFVRQVSKK [Clone H2C] | Some response at basal insulin | Approx 20 µM | +2 | 20 to 30 µM
